What was measured:
[1] = test system: thymocytes from TCTP^+/− mice; assay: Complementation (viability) of γ-irradiated TCTP+/− thymocytes; format: cell-based, mouse; details: γ-irradiation 2.5 Gy; overnight culture; 0 to 1000 nM
Excerpt: Figure 4 Molecular/functional analysis of the h1 (P1) subregion of BH3-TCTP. […]
Peptides used for in vitro assays:
WT-TCTP (11-31): […]
R21A-TCTP (11-31): […]
Hybrid Bax/TCTP: […]
Peptides used for in vivo assays:
WT-TCTP (1-31) : […]
Hybrid Bax-TCTP: […]
TCTP-FLAG peptides used for in vivo assays:
WT-TCTP (1-31)-FLAG : […] DYKDDDDK-OH
TCTP-Bax-TCTP-FLAG: […]-OH […]
subdomain in the BH3 motif is underlined. Peptides were purchased from Smartox […]
Complementation and transduction experiments
In order to complement the haploinsufficient TCTP+/- mice with exogenous TCTP, we took advantage of the fact that the first N-terminal fragment of TCTP functions as a Protein Transduction Domain (PTD), enabling TCTP to penetrate into the cell by a mechanism hitherto […]
not well understood23,27-29. […]
of γ irradiation) and cultured, at a concentration of 10^7 cells/ml, overnight in the presence of […]
20) at concentrations ranging from 0-1000nM. For the transduction assays using WT-TCTP- […]
concentrations were 10 microM, 50 microM and 100 microM.
γ-irradiated thymocytes were fixed by adding 500ul of PFA 4% and incubated for 20 min at room temperature. The cells were washed twice with PBS and permeabilized for 10 min with 0.2% triton X-100 in PBS at room temp. The cells were washed twice with PBS. Proteins were blocked in Blocking buffer (1% BSA 0.5% Tween in PBS) 1h at room temperature. The primary antibody was added with blocking buffer and placed in a rotating wheel overnight in a cold room.
Cells were then washed 3 times with PBS and incubated with secondary antibody with blocking buffer 1h at room temperature. The cells were washed 3 times with PBS and suspended in 200 µL PBS and used for Flow Cytometry or further used for immunohistochemistry: 5 µl of each sample were mixed with 5 µl of ProLong® Gold antifade reagent (Life Technologies) and visualized, using the IX73 inverted fluorescence microscope and the cellSens™ Dimension […]
FACS analysis (BD Accuri™ C6 Cytometer (BD Biosciences) of incorporation of exogenous

[2] = test system: Bcl-xL-Y101K; assay: Heterocomplex formation with Bcl-xL-Y101K mutant; format: binding, human
Description: When not specified, proteins tested for binding experiments were mixed at 100 μM, dialyzed against 10 mM CHES pH 9, 50 mM NaCl, 1 mM DTT or TCEP, depending on the analysis, and heated overnight at 30 °C.
For binding experiments, 100 to 200PL of protein mixture were loaded on a size exclusion chromatography (S200, GE Healthcare) column, while elution profiles were measured by UV absorption at 280 nm.
SEC-MALS experiments were performed on a multi-angle light scattering detector (miniDAWN TREOS, Wyatt Technologies) coupled in-line with SEC and an interferometric refractometer (Optilab T-rEX, Wyatt Technologies). See Supplementary Information for full details.
Prior to any mass spectrometry experiment, protein buffer was exchanged twice against a 50 mM ammonium acetate (NH4Ac) solution at pH 9.0 using microcentrifuge gel filtration columns (Zeba 0.5 ml, Thermo Scientific, Rockford, IL). Protein concentration was determined spectrophotometrically. […]
Gel filtration. For binding experiments, 100 to 200PL of protein mixture were loaded on a size exclusion chromatography (S200, GE Healthcare) column, while elution profiles were measured by UV absorption at 280nm. […]
For MALS experiments, the molar mass was determined by construction of Debye plot using Zimm formalism (plot of K*c/R(T) as a function of sin2(T/2)) at 0.5 and 1sec data intervals, for Superdex S200 column. […]

TCTP: Translationally Controlled Tumor Protein (TCTP/tpt1), recombinant full-length
rescue of TCTP+/− haploinsufficient phenotype / anti-apoptotic function [1]: rescue completely the TCTP^+/− haploinsufficient phenotype | complex formation with Bcl-xL-Y101K mutant [2]: unable to form heterocomplexes
